According to PMC5218480 (PLoS ONE, 2017):

Tested on: MV-4-11 cells
Test: Gene expression microarray analysis (Affymetrix PrimeView) and GSEA
Format: cell-based, human
Parameters: RFU PODN (11730768_x_at) / Fold change /veh PODN (11730768_x_at) / RFU LINC00158 (11744669_a_at) / Fold change /veh LINC00158 (11744669_a_at) / RFU DUSP10 (11751237_a_at) / Fold change /veh DUSP10 (11751237_a_at) / RFU ID3 (11757404_x_at) / Fold change /veh ID3 (11757404_x_at) / RFU PLEKHG5 (11737974_s_at) / Fold change /veh PLEKHG5 (11737974_s_at) / RFU LRRC4B (11730491_at) / Fold change /veh LRRC4B (11730491_at) / RFU GIMAP4 (11747438_a_at) / Fold change /veh GIMAP4 (11747438_a_at) / RFU KRT8 (11758183_x_at) / Fold change /veh KRT8 (11758183_x_at) / RFU CNN1 (11734310_a_at) / Fold change /veh CNN1 (11734310_a_at) / RFU VPS37D (11726825_at) / Fold change /veh VPS37D (11726825_at) / RFU C10orf10 (11716522_x_at) / Fold change /veh C10orf10 (11716522_x_at) / RFU KIR2DL2 /// KIR2DL4 /// KIR2DL5A /// KIR2DL5B /// KIR2DS1 /// KIR2DS2 /// KIR2DS3 /// KIR2DS4 /// KIR3DL3 /// KIR3DL3 /// KIR3DS1 (11738374_at) / Fold change /veh KIR2DL2 /// KIR2DL4 /// KIR2DL5A /// KIR2DL5B /// KIR2DS1 /// KIR2DS2 /// KIR2DS3 /// KIR2DS4 /// KIR3DL3 /// KIR3DL3 /// KIR3DS1 (11738374_at) / RFU C1QL1 (11718748_at) / Fold change /veh C1QL1 (11718748_at) / RFU TMPRSS4 (11747572_a_at) / Fold change /veh TMPRSS4 (11747572_a_at) / RFU HAMP (11756126_x_at) / Fold change /veh HAMP (11756126_x_at) / RFU RNFT2 (11725882_a_at) / Fold change /veh RNFT2 (11725882_a_at) / RFU NR4A2 (11747474_a_at) / Fold change /veh NR4A2 (11747474_a_at) / RFU ABCC12 (11746883_a_at) / Fold change /veh ABCC12 (11746883_a_at) / RFU TMEM136 (11760407_x_at) / Fold change /veh TMEM136 (11760407_x_at) / RFU CLDN22 /// WWC2 (11732394_at) / Fold change /veh CLDN22 /// WWC2 (11732394_at) / RFU HLA-DPB1 (11760878_x_at) / Fold change /veh HLA-DPB1 (11760878_x_at) / RFU SPINT1 (11716480_a_at) / Fold change /veh SPINT1 (11716480_a_at) / RFU GAP43 (11754022_s_at) / Fold change /veh GAP43 (11754022_s_at) / RFU A4GNT (11735810_at) / Fold change /veh A4GNT (11735810_at) / RFU PRB3 (11715151_x_at) / Fold change /veh PRB3 (11715151_x_at) / RFU TUBB4B (11761932_at) / Fold change /veh TUBB4B (11761932_at) / RFU CAPN14 (11732068_a_at) / Fold change /veh CAPN14 (11732068_a_at) / RFU TMCC2 (11721928_a_at) / Fold change /veh TMCC2 (11721928_a_at) / RFU IRGQ (11745062_a_at) / Fold change /veh IRGQ (11745062_a_at) / RFU FAM174B (11720279_a_at) / Fold change /veh FAM174B (11720279_a_at) / RFU TMPRSS4 (11748680_a_at) / Fold change /veh TMPRSS4 (11748680_a_at) / RFU FAM212B (11763350_a_at) / Fold change /veh FAM212B (11763350_a_at) / RFU PLEKHG5 (11743358_a_at) / Fold change /veh PLEKHG5 (11743358_a_at) / RFU ZSCAN30 (11745921_a_at) / Fold change /veh ZSCAN30 (11745921_a_at) / RFU CMKLR1 (11741424_a_at) / Fold change /veh CMKLR1 (11741424_a_at) / RFU LOC101060620 /// MAPK8IP1 (11723275_at) / Fold change /veh LOC101060620 /// MAPK8IP1 (11723275_at) / RFU SPTSSB (11747773_x_at) / Fold change /veh SPTSSB (11747773_x_at) / RFU PRSS12 (11739890_at) / Fold change /veh PRSS12 (11739890_at) / RFU BIN1 (11741810_x_at) / Fold change /veh BIN1 (11741810_x_at) / RFU WNT11 (11732464_a_at) / Fold change /veh WNT11 (11732464_a_at) / RFU C10orf10 (11716521_a_at) / Fold change /veh C10orf10 (11716521_a_at) / RFU C5orf56 (11738089_at) / Fold change /veh C5orf56 (11738089_at) / RFU CYB561 (11721691_x_at) / Fold change /veh CYB561 (11721691_x_at) / RFU ANKRD19P (11752326_a_at) / Fold change /veh ANKRD19P (11752326_a_at) / RFU OR2T12 /// OR2T33 /// OR2T8 (11738714_s_at) / Fold change /veh OR2T12 /// OR2T33 /// OR2T8 (11738714_s_at) / RFU VCAN (11748164_a_at) / Fold change /veh VCAN (11748164_a_at) / RFU JSRP1 (11732532_at) / Fold change /veh JSRP1 (11732532_at) / RFU KRTAP10-11 (11738290_x_at) / Fold change /veh KRTAP10-11 (11738290_x_at) / RFU MYO3A (11730013_a_at) / Fold change /veh MYO3A (11730013_a_at) / RFU EBF3 (11725865_a_at) / Fold change /veh EBF3 (11725865_a_at) / RFU CAMK2N1 (11719241_x_at) / Fold change /veh CAMK2N1 (11719241_x_at) / RFU C5orf56 (11738088_a_at) / Fold change /veh C5orf56 (11738088_a_at) / RFU OLFML3 (11715873_a_at) / Fold change /veh OLFML3 (11715873_a_at) / RFU LOC100653217 /// NTM (11731650_a_at) / Fold change /veh LOC100653217 /// NTM (11731650_a_at) / RFU MAPK11 (11762145_a_at) / Fold change /veh MAPK11 (11762145_a_at) / RFU FIZ1 (11724087_x_at) / Fold change /veh FIZ1 (11724087_x_at) / RFU OASL (11726364_x_at) / Fold change /veh OASL (11726364_x_at) / RFU SOX15 (11748057_x_at) / Fold change /veh SOX15 (11748057_x_at) / RFU CD79A (11719716_a_at) / Fold change /veh CD79A (11719716_a_at) / RFU HIST1H1D (11736915_at) / Fold change /veh HIST1H1D (11736915_at) / RFU CASKIN2 (11723855_a_at) / Fold change /veh CASKIN2 (11723855_a_at) / RFU LOC730098 (11760151_x_at) / Fold change /veh LOC730098 (11760151_x_at) / RFU OR4N2 (11742367_at) / Fold change /veh OR4N2 (11742367_at) / RFU PRRT2 (11749266_a_at) / Fold change /veh PRRT2 (11749266_a_at) / RFU SNX32 (11753110_a_at) / Fold change /veh SNX32 (11753110_a_at) / RFU CDHR5 (11726645_a_at) / Fold change /veh CDHR5 (11726645_a_at) / RFU RCAN1 (11760418_a_at) / Fold change /veh RCAN1 (11760418_a_at) / RFU FAM167A (11723789_a_at) / Fold change /veh FAM167A (11723789_a_at) / RFU FAM26E (11764081_at) / Fold change /veh FAM26E (11764081_at) / RFU ISYNA1 (11749810_s_at) / Fold change /veh ISYNA1 (11749810_s_at) / RFU ACY1 (11761880_at) / Fold change /veh ACY1 (11761880_at) / RFU 11764098_at / Fold change /veh 11764098_at / RFU SAMD14 (11745864_x_at) / Fold change /veh SAMD14 (11745864_x_at) / RFU NPB (11741838_a_at) / Fold change /veh NPB (11741838_a_at) / RFU TMPRSS6 (11731388_a_at) / Fold change /veh TMPRSS6 (11731388_a_at) / RFU KRTAP10-2 (11738614_at) / Fold change /veh KRTAP10-2 (11738614_at) / RFU ARHGAP8 /// PRR5-ARHGAP8 (11727945_x_at) / Fold change /veh ARHGAP8 /// PRR5-ARHGAP8 (11727945_x_at) / RFU KRTAP5-7 /// NADSYN1 (11734609_at) / Fold change /veh KRTAP5-7 /// NADSYN1 (11734609_at) / RFU RASL12 (11751679_a_at) / Fold change /veh RASL12 (11751679_a_at) / RFU CDKN2B (11736163_a_at) / Fold change /veh CDKN2B (11736163_a_at) / RFU PRF1 (11729649_at) / Fold change /veh PRF1 (11729649_at) / RFU, ZNF638 /// ZNF638-IT1 / Fold change vs veh, ZNF638 /// ZNF638-IT1 / RFU, PANK3 / Fold change vs veh, PANK3 / RFU, SH3YL1 / Fold change vs veh, SH3YL1 / RFU, ZEB2 / Fold change vs veh, ZEB2 / RFU, NRIP1 / Fold change vs veh, NRIP1 / RFU, PTTG1IP / Fold change vs veh, PTTG1IP / RFU, CAPN2 / Fold change vs veh, CAPN2 / RFU, MED14 / Fold change vs veh, MED14 / RFU, SNORA58 / Fold change vs veh, SNORA58 / RFU, C1orf63 / Fold change vs veh, C1orf63 / RFU, LRRFIP1 / Fold change vs veh, LRRFIP1 / RFU, NDUFAF7 / Fold change vs veh, NDUFAF7 / RFU, SLC12A2 / Fold change vs veh, SLC12A2 / RFU, IBTK / Fold change vs veh, IBTK / RFU, ESF1 / Fold change vs veh, ESF1 / Fold change vs veh, TMEM50B / RFU, TAOK1 / Fold change vs veh, TAOK1 / RFU, ACBD3 / Fold change vs veh, ACBD3 / RFU, TMA16 / Fold change vs veh, TMA16 / RFU, RWDD3 / Fold change vs veh, RWDD3 / RFU, BCAT1 / Fold change vs veh, BCAT1 / RFU, EDEM3 / Fold change vs veh, EDEM3 / RFU, TMEM33 / Fold change vs veh, TMEM33 / RFU, WDR75 / Fold change vs veh, WDR75 / RFU, AHCTF1 / Fold change vs veh, AHCTF1 / RFU, TFRC / Fold change vs veh, TFRC / RFU, ZDHHC17 / Fold change vs veh, ZDHHC17 / RFU, NOM1 / Fold change vs veh, NOM1 / RFU, ARL8B / Fold change vs veh, ARL8B / RFU, ZBTB11 / Fold change vs veh, ZBTB11 / RFU, TAMM41 / Fold change vs veh, TAMM41 / RFU, KIAA1704 /// LOC100996395 / Fold change vs veh, KIAA1704 /// LOC100996395 / RFU, ING1 / Fold change vs veh, ING1 / RFU, TRMT61B / Fold change vs veh, TRMT61B / RFU, FUBP3 / Fold change vs veh, FUBP3 / RFU, TP53 / Fold change vs veh, TP53 / RFU, TNKS2 / Fold change vs veh, TNKS2 / RFU, ZFP14 / Fold change vs veh, ZFP14 / RFU, ACTR2 / Fold change vs veh, ACTR2 / RFU, PPP3R1 / Fold change vs veh, PPP3R1 / RFU, PIK3R1 / Fold change vs veh, PIK3R1 / RFU, HNRNPA1 / Fold change vs veh, HNRNPA1 / RFU, RNF170 / Fold change vs veh, RNF170 / RFU, ZNF28 / Fold change vs veh, ZNF28 / RFU, RNGTT / Fold change vs veh, RNGTT / RFU, OGT / Fold change vs veh, OGT / RFU, BRD1 / Fold change vs veh, BRD1 / RFU, MARS / Fold change vs veh, MARS / RFU, ZNF655 / Fold change vs veh, ZNF655 / RFU, FAHD1 / Fold change vs veh, FAHD1 / RFU, BDP1 / Fold change vs veh, BDP1 / RFU, LRRCC1 / Fold change vs veh, LRRCC1 / RFU, ARID1A / Fold change vs veh, ARID1A / RFU, ZNF146 / Fold change vs veh, ZNF146 / RFU, ZNF330 / Fold change vs veh, ZNF330 / RFU, GPN3 / Fold change vs veh, GPN3 / RFU, C9orf123 / Fold change vs veh, C9orf123 / RFU, N4BP2L2 / Fold change vs veh, N4BP2L2 / RFU, ARFIP1 / Fold change vs veh, ARFIP1 / RFU, FAM179B / Fold change vs veh, FAM179B / RFU, BCL10 / Fold change vs veh, BCL10 / RFU, UHRF1BP1L / Fold change vs veh, UHRF1BP1L / RFU, BET1 / Fold change vs veh, BET1 / RFU, CNOT2 / Fold change vs veh, CNOT2 / RFU, ZNF268 / Fold change vs veh, ZNF268 / Fold change vs veh, ZNF507 / RFU, DGCR2 / Fold change vs veh, DGCR2 / RFU, WDSUB1 / Fold change vs veh, WDSUB1 / Fold change vs veh, HSP90B1 /// MIR3652 / RFU, ADSS / Fold change vs veh, ADSS / RFU, GK / Fold change vs veh, GK / RFU, ZNF148 / Fold change vs veh, ZNF148 / RFU, TAF9 / Fold change vs veh, TAF9 / RFU, SLC1A5 / Fold change vs veh, SLC1A5 / RFU, SLMO2 / Fold change vs veh, SLMO2 / RFU, ABCC4 / Fold change vs veh, ABCC4 / RFU, LOC101060439 /// RAP1B / Fold change vs veh, LOC101060439 /// RAP1B / RFU, RFX7 / Fold change vs veh, RFX7 / RFU, GTPBP10 / Fold change vs veh, GTPBP10 / RFU, CNEP1R1 / Fold change vs veh, CNEP1R1 / RFU, BIVM-ERCC5 /// ERCC5 / Fold change vs veh, BIVM-ERCC5 /// ERCC5 / RFU, ILF3 / Fold change vs veh, ILF3 / RFU 11762660_at / Fold change /veh 11762660_at / RFU VCAN (11757783_s_at) / Fold change /veh VCAN (11757783_s_at) / RFU DDX43 (11728927_at) / Fold change /veh DDX43 (11728927_at) / RFU KRT8 (11758188_x_at) / Fold change /veh KRT8 (11758188_x_at) / RFU NKD1 (11759106_at) / Fold change /veh NKD1 (11759106_at) / RFU SRD5A1 (11742802_a_at) / Fold change /veh SRD5A1 (11742802_a_at) / RFU TPSAB1 /// TPSB2 (11721975_s_at) / Fold change /veh TPSAB1 /// TPSB2 (11721975_s_at) / RFU GSTM3 (11746129_a_at) / Fold change /veh GSTM3 (11746129_a_at) / RFU IL23R (11737362_x_at) / Fold change /veh IL23R (11737362_x_at) / RFU TMEM51 (11727254_a_at) / Fold change /veh TMEM51 (11727254_a_at) / RFU PIWIL2 (11732686_x_at) / Fold change /veh PIWIL2 (11732686_x_at) / RFU ORM1 (11744905_x_at) / Fold change /veh ORM1 (11744905_x_at) / RFU CCDC152 (11743942_at) / Fold change /veh CCDC152 (11743942_at) / RFU ECM1 (11717891_a_at) / Fold change /veh ECM1 (11717891_a_at) / RFU IL23R (11748794_a_at) / Fold change /veh IL23R (11748794_a_at) / RFU TNFAIP8L3 (11732012_x_at) / Fold change /veh TNFAIP8L3 (11732012_x_at) / RFU MBOAT4 (11741988_at) / Fold change /veh MBOAT4 (11741988_at) / RFU 11764193_at / Fold change /veh 11764193_at / RFU TMEM53 (11763286_at) / Fold change /veh TMEM53 (11763286_at) / RFU MAGEB2 (11727129_at) / Fold change /veh MAGEB2 (11727129_at) / RFU TMEM200A (11744735_a_at) / Fold change /veh TMEM200A (11744735_a_at) / RFU CCDC152 (11751479_a_at) / Fold change /veh CCDC152 (11751479_a_at) / RFU FAM211A (11726209_a_at) / Fold change /veh FAM211A (11726209_a_at) / RFU RGS16 (11746705_a_at) / Fold change /veh RGS16 (11746705_a_at) / RFU VCAN (11755009_s_at) / Fold change /veh VCAN (11755009_s_at) / RFU RHOB (11743442_s_at) / Fold change /veh RHOB (11743442_s_at) / RFU RGS16 (11720943_a_at) / Fold change /veh RGS16 (11720943_a_at) / RFU RGS16 (11720944_at) / Fold change /veh RGS16 (11720944_at) / RFU, VPS4B / Fold change vs veh, VPS4B / RFU, CREB1 / Fold change vs veh, CREB1 / RFU, DNAJC13 / Fold change vs veh, DNAJC13 / RFU, GNAQ / Fold change vs veh, GNAQ / RFU, CDK5R1 / Fold change vs veh, CDK5R1 / RFU, ZRANB3 / Fold change vs veh, ZRANB3 / RFU, CUL4A / Fold change vs veh, CUL4A / RFU, CCNY / Fold change vs veh, CCNY / RFU, UFL1 / Fold change vs veh, UFL1 / RFU, COG3 / Fold change vs veh, COG3 / RFU, DIAPH2 / Fold change vs veh, DIAPH2 / RFU, SKA2 / Fold change vs veh, SKA2 / RFU, AFF3 / Fold change vs veh, AFF3 / RFU, LMF1 / Fold change vs veh, LMF1 / RFU, IPO11 / Fold change vs veh, IPO11 / RFU, DFFB / Fold change vs veh, DFFB / RFU, FOXP1 / Fold change vs veh, FOXP1 / RFU, CARD8 / Fold change vs veh, CARD8 / RFU, STRN3 / Fold change vs veh, STRN3 / RFU, ADK / Fold change vs veh, ADK / RFU, RASSF2 / Fold change vs veh, RASSF2 / RFU, WIPF1 / Fold change vs veh, WIPF1 / RFU, LARP1B / Fold change vs veh, LARP1B / RFU, RASA1 / Fold change vs veh, RASA1 / RFU, RB1 / Fold change vs veh, RB1 / RFU, PPFIA1 / Fold change vs veh, PPFIA1 / RFU, MAT2A / Fold change vs veh, MAT2A / RFU, CCT5 / Fold change vs veh, CCT5 / RFU, WDR92 / Fold change vs veh, WDR92 / RFU, CUX1 / Fold change vs veh, CUX1 / RFU, TTC7A / Fold change vs veh, TTC7A / RFU, TMEM135 / Fold change vs veh, TMEM135 / RFU, DEPTOR / Fold change vs veh, DEPTOR / RFU, CPM / Fold change vs veh, CPM / RFU, DNAJB6 / Fold change vs veh, DNAJB6 / RFU, CACNA2D3 / Fold change vs veh, CACNA2D3 / RFU, DTX4 / Fold change vs veh, DTX4 / RFU, TFCP2 / Fold change vs veh, TFCP2 / RFU, GMCL1 /// GMCL1P1 / Fold change vs veh, GMCL1 /// GMCL1P1 / RFU, AEBP2 / Fold change vs veh, AEBP2 / RFU, SNHG1 /// SNORD22 /// SNORD25 /// SNORD26 /// SNORD27 /// SNORD28 /// SNORD29 /// SNORD31 / Fold change vs veh, SNHG1 /// SNORD22 /// SNORD25 /// SNORD26 /// SNORD27 /// SNORD28 /// SNORD29 /// SNORD31 / Fold change (Aza/veh), C12orf56 (ProbeSet 11735607_a_at) / Fold change (ACY-1035/veh), C12orf56 (ProbeSet 11735607_a_at) / Fold change (Aza/veh), FGFR1OP (ProbeSet 11751329_s_at) / Fold change (ACY-1035/veh), FGFR1OP (ProbeSet 11751329_s_at) / Fold change (Aza/veh), VPS36 (ProbeSet 11739960_a_at) / Fold change (ACY-1035/veh), VPS36 (ProbeSet 11739960_a_at) / RFU SYPL1 (11715823_x_at) / Fold change /veh SYPL1 (11715823_x_at) / RFU IGFBP7 (11715501_s_at) / Fold change /veh IGFBP7 (11715501_s_at) / RFU REEP3 (11722064_at) / Fold change /veh REEP3 (11722064_at) / RFU IGLL1 (11728026_x_at) / Fold change /veh IGLL1 (11728026_x_at): dose or concentration left out as unconfirmed
Conditions: ProbeSet 11721969_s_at; LIST B

## Nc1ncn([C@@H]2O[C@H](CO)[C@@H](O)[C@H]2O)c(=O)n1 [azacitidine]
  Fold change vs veh, BDP1: 0.86
